Test results from US8299056B2 (Signal Pharmaceuticals, LLC, priority 2008, dated 2012).

The molecules below were run against T1, Syk (Homo sapiens, UniProt P43405) (assay: Syk HTRF assay). Details: IC50 activity level, read-out: Activity Level.
T1 construct: purchased Carna Biosciences
Assay type: biochemical
In short: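 HTRF kinase assay in HEPES pH 7.6 buffer with MgCl2, DTT and Triton X100; start mix of 87.5 μM ATP and 80 nM biotinylated peptide, 1 h at room temperature. EDTA stop, then Eu-anti-phosphotyrosine/streptavidin-DyLight 647 detection, read as 665/615 nm emission ratio.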

| IC50 | SMILES |
| --- | --- |
| 0.005 to 250 nM | Cc1nnc2cc(Nc3nc4cccc(N[C@H]5CC[C@@H](O)CC5)n4n3)ccn12 [Example 568, cis-4-(2-(3-methyl-[1,2,4]triazolo[4,3-a]pyridin-7-ylamino)-[1,2,4]triazolo[1,5-a]pyridin-5-ylamino)cyclohexanol] |
| 1000 to 10000 nM | c1ccc(Nc2nc3cccc(C4CCCCC4)n3n2)cc1 [Example 525, 5-cyclohexyl-N-phenyl-[1,2,4]triazolo[1,5-a]pyridin-2-amine] |
| 1000 to 10000 nM | O=C1NCc2c1cccc2-c1cccc2nc(Nc3ccccc3)nn12 [Example 499, 4-(2-(phenylamino)-[1,2,4]triazolo[1,5-a]pyridin-5-yl)-isoindolin-1-one] |
| 1000 to 10000 nM | NCCCc1cccc2nc(Nc3ccccc3)nn12 [Example 498, 5-(3-aminopropyl)-N-phenyl-[1,2,4]triazolo[1,5-a]pyridin-2-amine] |
| 1000 to 10000 nM | CN(C)c1cccc2nc(Nc3ccccc3)nn12 [Example 477, N^5,N^5-dimethyl-N^2-phenyl-[1,2,4]triazolo[1,5-a]pyridin-2,5-diamine] |
| 0.005 to 250 nM | Cn1ncc2ccc(Nc3nc4cccc(N[C@H]5CCCNC5)n4n3)cc21 [Example 466, (S)-N^2-(1-methyl-1H-indazol-6-yl)-N^5-(piperidin-3-yl)-[1,2,4]triazolo[1,5-a]pyridine-2,5-diamine] |
| 1000 to 10000 nM | Oc1cc(-c2cccc3nc(Nc4ccccc4)nn23)ccn1 [Example 517, 4-(2-(phenylamino)-[1,2,4]triazolo[1,5-a]pyridin-5-yl)pyridin-2-ol] |
| 1000 to 10000 nM | Cc1conc1-c1cccc2nc(Nc3ccccc3)nn12 [Example 435, 5-(4-methylisoxazol-3-yl)-N-phenyl-[1,2,4]triazolo[1,5-a]pyridin-2-amine] |

Same assay, conditions: activity levels A-D, read-out: Activity Level (IC50 in the Syk HTRF assay)

| IC50 | SMILES |
| --- | --- |
| 500 to 1000 nM | O[C@@H]1CCN(c2cccc3nc(Nc4ccc(C(F)(F)F)cc4)nn23)C1 [Example 332, (R)-1-(2-(4-(trifluoromethyl)phenylamino)-[1,2,4]triazolo[1,5-a]pyridin-5-yl)pyrrolidin-3-ol] |
| 0.005 to 250 nM | Cc1n[nH]c2cc(Nc3nc4cccc(C[C@H]5CC[C@H](O)CC5)n4n3)ccc12 (stereo in doubt) [Example 240, trans-4-((2-(3-methyl-1H-indazol-6-ylamino)-[1,2,4]triazolo[1,5-a]pyridin-5-yl)methyl)cyclohexanol] |
| 1000 to 10000 nM | CC(C)(CO)Nc1cccc2nc(Nc3ccc(C(F)(F)F)cc3)nn12 [Example 358, 2-methyl-2-(2-(4-(trifluoromethyl)phenylamino)-[1,2,4]triazolo[1,5-a]pyridin-5-ylamino)propan-1-ol] |
| 0.005 to 250 nM | O[C@H]1CCC[C@H](Nc2cccc3nc(Nc4ccc(C(F)(F)F)cc4)nn23)C1 (racemic) [Example 248, (±)-trans-3-(2-(4-(trifluoromethyl)phenylamino)-[1,2,4]triazolo[1,5-a]pyridin-5-ylamino)cyclohexanol] |
| 0.005 to 250 nM | Cc1n[nH]c2cc(Nc3nc4cccc(N[C@H]5CC[C@H](O)CC5)n4n3)ccc12 (stereo in doubt) [Example 201, trans-4-(2-(3-methyl-1H-indazol-6-ylamino)-[1,2,4]triazolo[1,5-a]pyridin-5-ylamino)cyclohexanol] |
| 0.005 to 250 nM | Cc1n[nH]c2cc(Nc3nc4cccc(NC5CCOCC5)n4n3)ccc12 [Example 209, N^2-(3-methyl-1H-indazol-6-yl)-N^5-(tetrahydro-2H-pyran-4-yl)-[1,2,4]triazolo[1,5-a]pyridin-2,5-diamine] |
| 1000 to 10000 nM | CC(C)(O)c1ccc(Nc2nc3cccc(N[C@H]4CC[C@@H](O)CC4)n3n2)cn1 [Example 359, cis-4-(2-(6-(2-hydroxypropan-2-yl)pyridin-3-ylamino)-[1,2,4]triazolo[1,5-a]pyridin-5-ylamino)cyclohexanol] |
| 250 to 500 nM | OC1CCN(c2cccc3nc(Nc4ccc(C(F)(F)F)cc4)nn23)C1 (stereo in doubt) [Example 333, (S)-1-(2-(4-(trifluoromethyl)phenylamino)-[1,2,4]triazolo[1,5-a]pyridin-5-yl)pyrrolidin-3-ol] |
| 0.005 to 250 nM | CC1C(=O)NCCN1Cc1cccc2nc(Nc3ccc(C(F)(F)F)cc3)nn12 (stereo in doubt) [Example 275, (S)-3-methyl-4-((2-(4-(trifluoromethyl)phenylamino)-[1,2,4]triazolo[1,5-a]pyridin-5-yl)methyl)piperazin-2-one] |
| 250 to 500 nM | OC[C@H]1CCCN1c1cccc2nc(Nc3ccc(C(F)(F)F)cc3)nn12 [Example 288, (R)-(1-(2-(4-(trifluoromethyl)phenylamino)-[1,2,4]triazolo[1,5-a]pyridin-5-yl)pyrrolidin-2-yl)methanol] |
| 1000 to 10000 nM | O=C1CN(Cc2cccc3nc(Nc4ccc(C(F)(F)F)cc4)nn23)C(=O)N1 [Example 252, 1-((2-(4-(trifluoromethyl)phenylamino)-[1,2,4]triazolo[1,5-a]pyridin-5-yl)methyl)imidazolidine-2,4-dione] |
| 500 to 1000 nM | CNC(=O)c1ccc(Nc2nc3cccc(N[C@H]4CC[C@@H](N)CC4)n3n2)cc1 [Example 360, 4-(5-(cis-4-aminocyclohexylamino)-[1,2,4]triazolo[1,5-a]pyridin-2-ylamino)-N-methylbenzamide] |
| 0.005 to 250 nM | COc1cc(Nc2nc3cccc(N[C@H]4CC[C@@H](O)CC4)n3n2)ccn1 [Example 378, cis-4-(2-(2-methoxypyridin-4-ylamino)-[1,2,4]triazolo[1,5-a]pyridin-5-ylamino)cyclohexanol] |
| 250 to 500 nM | CNC(=O)c1ccc(Nc2nc3cccc(N4CCCC4)n3n2)cc1 [Example 251, N-methyl-4-(5-(pyrrolidin-1-yl)-[1,2,4]triazolo[1,5-a]pyridin-2-ylamino)benzamide] |
| 0.005 to 250 nM | O[C@H]1CC[C@@H](Nc2cccc3nc(Nc4ccc(N5CCOCC5)nc4)nn23)CC1 [Example 313, cis-4-(2-(6-morpholinopyridin-3-ylamino)-[1,2,4]triazolo[1,5-a]pyridin-5-ylamino)cyclohexanol] |
| 1000 to 10000 nM | CN(c1cccc2nc(Nc3ccc(C(F)(F)F)cc3)nn12)[C@H]1CC[C@@H](O)CC1 [Example 266, cis-4-(methyl(2-(4-(trifluoromethyl)phenylamino)-[1,2,4]triazolo[1,5-a]pyridin-5-yl)amino)cyclohexanol] |
| 0.005 to 250 nM | OC1CCC(Cc2cccc3nc(Nc4ccc(C(F)(F)F)cc4)nn23)CC1 (stereo in doubt) [Example 398, trans-4-((2-(4-(trifluoromethyl)phenylamino)-[1,2,4]triazolo[1,5-a]pyridin-5-yl)methyl)cyclohexanol] |
| 1000 to 10000 nM | NC(=O)c1ccc(Nc2nc3cccc(N[C@H]4CC[C@@H](O)CC4)n3n2)c(F)c1 [Example 340, cis-3-fluoro-4-(5-(4-hydroxycyclohexylamino)-[1,2,4]triazolo[1,5-a]pyridin-2-ylamino)benzamide] |
| 250 to 500 nM | CC(C)(O)c1nc2ccc(-c3cccc4nc(Nc5ccc(C(F)(F)F)cc5)nn34)cc2[nH]1 [Example 379, 2-(6-(2-(4-(trifluoromethyl)phenylamino)-[1,2,4]triazolo[1,5-a]pyridin-5-yl)-1H-benzo[d]imidazol-2-yl)propan-2-ol] |

Same assay, conditions: read-out: Activity Level (Syk HTRF assay IC50)

| IC50 | SMILES |
| --- | --- |
| 500 to 1000 nM | c1ccc(-c2cccc3nc(Nc4ccncc4)nn23)cc1 [compound 58, 5-phenyl-N-(pyridin-4-yl)-[1,2,4]triazolo[1,5-a]pyridin-2-amine] |
| 0.005 to 250 nM | CC1(C)C(=O)Nc2cc(Nc3nc4cccc(N[C@H]5CC[C@H](O)CC5)n4n3)ccc21 (stereo in doubt) [Example 175, trans-6-(5-(4-hydroxycyclohexylamino)-[1,2,4]triazolo[1,5-a]pyridin-2-ylamino)-3,3-dimethylindolin-2-one] |
| 0.005 to 250 nM | O=c1cc(C(O)c2cccc3nc(Nc4ccc(C(F)(F)F)cc4)nn23)nc[nH]1 (stereo not drawn) [Example 193, 6-(hydroxy(2-(4-(trifluoromethyl)phenylamino)-[1,2,4]triazolo[1,5-a]pyridin-5-yl)methyl)pyrimidin-4(3H)-one] |
| 0.005 to 250 nM | Oc1cccc(-c2cccc3nc(Nc4ccc(-c5ncc[nH]5)cc4)nn23)c1 [compound 16, 3-(2-(4-(1H-imidazol-2-yl)phenylamino)-[1,2,4]triazolo[1,5-a]pyridin-5-yl)phenol] |
| 1000 to 10000 nM | NC(=O)c1ccc(Nc2nc3cccc(-c4ccccc4)n3n2)cn1 [compound 72, 5-(5-phenyl-[1,2,4]triazolo[1,5-a]pyridin-2-ylamino)picolinamide] |
| 250 to 500 nM | CC(=O)Nc1ccc(-c2cccc3nc(Nc4ccccc4)nn23)cc1 [compound 79, N-(4-(2-(phenylamino)-[1,2,4]triazolo[1,5-a]pyridin-5-yl)phenyl)acetamide] |
| 0.005 to 250 nM | Nc1noc2ccc(Nc3nc4cccc(-c5ccccc5)n4n3)cc12 [compound 42] |
| 0.005 to 250 nM | Cc1nn(CCO)c2cc(Nc3nc4cccc(N[C@H]5CC[C@@H](O)CC5)n4n3)ccc12 [Example 191, cis-4-(2-(1-(2-hydroxyethyl)-3-methyl-1H-indazol-6-ylamino)-[1,2,4]triazolo[1,5-a]pyridin-5-ylamino)cyclohexanol] |
| 0.005 to 250 nM | CNC(=O)c1ccc(Nc2nc3cccc(-c4cccc(-c5cnc[nH]5)c4)n3n2)cc1 [compound 7, 4-(5-(3-(1H-imidazol-5-yl)phenyl)-[1,2,4]triazolo[1,5-a]pyridin-2-ylamino)-N-methylbenzamide] |
| 0.005 to 250 nM | Cc1cc(Nc2nc3cccc(NC4CCOCC4)n3n2)cc2[nH]nc(C)c12 [compound 108] |
| 0.005 to 250 nM | c1ccc(-c2cccc3nc(Nc4ccc5nn[nH]c5c4)nn23)cc1 [compound 49, N-(5-phenyl-[1,2,4]triazolo[1,5-a]pyridin-2-yl)-1H-benzo[d][1,2,3]triazol-6-amine] |
| 500 to 1000 nM | Fc1cccc(-c2cccc3nc(Nc4ccccc4)nn23)c1 [compound 81, 5-(3-fluorophenyl)-N-phenyl-[1,2,4]triazolo[1,5-a]pyridin-2-amine] |
